Earlier results, collected in patent US11246836B2, “Intramuscular depot of decoquinate compositions and method of prophylaxis and treatment thereof” (BLUELIGHT PHARMATECH CO., LTD., priority 2018, dated 2022).
Values after ≈ are worked out from the molar mass of the structure shown.

Assays:
P. yoelii = details: 50 mg/kg in a corn oil emulsion
Plasmodium berghei ANKA = details: single dose of 5 mg/kg suspended in soybean oil

minimum inhibitory concentration (MIC) (Plasmodium): 5.12 ng/mL (≈ 0.0123 µM)
Compound: CCCCCCCCCCOc1cc2c(=O)c(C(=O)OCC)c[nH]c2cc1OCC [decoquinate, ethyl-6-decyloxy-7-ethoxy-4-hydroxyquinoline-3-carboxylate]
causal prophylaxis of parasitemia (P. yoelii): efficacious | appearance of blood stage parasites (Plasmodium berghei ANKA): prevent the appearance of blood stage Plasmodium berghei ANKA parasites
